According to US20120010075A1 (priority 2009, published 2012):
Read-outs that look alike come from different tables or passages of the source.

What was measured:
[1] = system: Leptosphaeria nodorum (LEPTNO); assay: In vitro fungitoxicity of hydrazones with and without copper towards Leptosphaeria nodorum (Example 26); type: cell-based; settings: 72 h at 25° C.; for inhibition of growth at 0.05 µg/mL: Parastagonospora nodorum, 72 h, copper-minus medium, read-out: LEPTNO % Inhn. Minus Copper Observed
Phytophthora infestans = type: in vivo, Phytophthora infestans on tomato; settings: applied 24 h before inoculation, assessed 7 days after inoculation
[2] = system: Leptosphaeria nodorum (LEPTNO); assay: Isolated metal-hydrazone complexes versus parent hydrazones, in vitro, Leptosphaeria nodorum (Example 31, Table 7); type: cell-based; settings: Parastagonospora nodorum; 0.1 μg/mL; copper-minus medium; 72 h
Phytophthora capsici = assay: In vitro fungitoxicity of hydrazones with and without copper towards Phytophthora capsici (Example 28, Table 3); type: cell-based; settings: 0.050 μg/mL, 48 h; for % Inhn Plus copper Observed: copper-plus AS medium (CuCl2, 50 μM); for inhibition of growth at 0.05 µg/mL: Phytophthora capsici, copper-minus AS medium, read-out: % Inhn Minus copper Observed
Ustilago maydis = assay: In vitro fungitoxicity of hydrazones with and without copper towards Ustilago maydis (Example 29, Table 4); type: cell-based; settings: 1 μg/mL, 48 h; for % Inhn. Plus copper Observed: copper-plus medium (CuCl2, 10 μM); for inhibition of growth at 1 µg/mL: Mycosarcoma maydis, copper-minus medium, read-out: % Inhn. Minus copper Observed
[3] = system: Septoria tritici isolate USA-184; assay: In vitro fungitoxicity of hydrazones with and without copper towards Septoria tritici (Example 30, Table 5); type: cell-based; settings: Zymoseptoria tritici, 0.05 μg/mL
[4] = test compound Concn. 0.05 μg/mL
[5] = copper-plus medium (CuCl2 10 μM), test compound Concn. 0.05 μg/mL
[6] = hydrazone 50 ppm with 50 μM CuCl2.2H2O, tomato late blight
[7] = compound 0.05 μg/mL, copper-plus medium (CuCl2.2H2O)
[8] = hydrazone 50 ppm + 50 μM CuCl2.2H2O, tomato
[9] = Colby formula, CuCl2, read-out: % Inhibition Plus copper Predicted
[10] = copper-minus medium, 90 h, read-out: % Inhibition Minus copper Observed
[11] = copper-plus medium CuCl2, 90 h, read-out: % Inhibition Plus copper Observed

| SMILES | inhibition of growth at 0.05 µg/mL [1, 4] [%] | LEPTNO % Inhn. Plus Copper Observed [1, 5] [%] | TLB % Control (Phytophthora infestans; [6]) [%] | inhibition at 0.1 µg/mL [2] [%] | melting point [°C] | inhibition of growth at 0.05 µg/mL ([1]; compound 0.05 μg/mL) [%] | LEPTNO % Inhn. Plus Copper Observed [1, 7] [%] | TLB % Control (Phytophthora infestans; [8]) [%] | % Inhn Plus copper Observed (Phytophthora capsici) [%] | inhibition of growth at 0.05 µg/mL (Phytophthora capsici) [%] | % Inhn. Plus copper Observed (Ustilago maydis) [%] | inhibition of growth at 1 µg/mL (Ustilago maydis) [%] | inhibition at 0.05 µg/mL [3, 9] [%] | inhibition at 0.05 µg/mL [3, 10] [%] | inhibition at 0.05 µg/mL [3, 11] [%] |
| --- | --- | --- | --- | --- | --- | --- | --- | --- | --- | --- | --- | --- | --- | --- | --- |
| COc1cccc(/C(C)=N/NC(=O)c2cccc(Cl)c2)c1O [Example 304] | 0 | 97.9 | 77.0 | 13.3 | 146 to 148 | – | – | – | – | – | – | – | – | – | – |
| C/C(=N\NC(=O)c1ccc(Cl)cc1)c1cc(Cl)cc(Cl)c1O [Example 136] | – | – | – | 34.7 | 260 to 262 | 9.7 | 98.6 | 95.0 | – | – | – | – | – | – | – |
| O=C(N/N=C/c1ccc(Cl)c(Cl)c1O)c1ccccc1 [Example 238] | – | – | – | 20 | 249 to 252 | 0.5 | 97.6 | 92.5 | – | – | – | – | – | – | – |
| O=C(N/N=C/c1ccc(Cl)c(Cl)c1O)c1ccc(Cl)cc1 [Example 359] | 41.4 | 97.3 | 92.0 | 24.1 | 260 to 262 | – | – | – | – | – | – | – | – | – | – |
| COc1cccc(/C(C)=N/NC(=O)c2ccccc2Cl)c1O [Example 303] | 0 | 98.0 | 45.0 | 10.6 | 233 to 234 | – | – | – | – | – | – | – | – | – | – |
| O=C(N/N=C/c1cccc(Cl)c1O)c1ccc(Cl)cc1 [Example 428] | 44.1 | 98.4 | 97.0 | 29.9 | 217 to 219 | – | – | – | – | – | – | – | – | – | – |
| O=C(N/N=C/c1cc(Cl)cc(Br)c1O)c1ccccc1 [Example 151] | – | – | – | 30.9 | – | 11.8 | 97.6 | 83.0 | – | – | – | – | – | – | – |
| O=C(N/N=C/c1cc(Cl)cc(Br)c1O)c1ccccc1O [Example 195] | – | – | – | 21.7 | – | 19.2 | 97.9 | 89.5 | – | – | – | – | – | – | – |
| O=C(N/N=C/c1c(Cl)ccc(Cl)c1O)c1cccc(Cl)c1 [Example 369] | 7 | 95.5 | 98.0 | – | 232 to 234 | – | – | – | 44.5 | 0 | 93.6 | 3.1 | 9.3 | 9.3 | 93.2 |
| O=C(N/N=C/c1cccc(Cl)c1O)c1cccc(Cl)c1 [Example 427] | 26.1 | 97.9 | 98.0 | – | 174 to 178 | – | – | – | 88.6 | 9.1 | 89.3 | 34.3 | 43.8 | 43.8 | 96.7 |
| C/C(=N\NC(=O)c1ccccc1Cl)c1cc(Cl)cc(Cl)c1O [Example 67] | – | – | – | 4.2 | – | 2.6 | 91.8 | 75.0 | – | – | – | – | – | – | – |
| C/C(=N\NC(=O)c1ccc(Cl)cc1)c1cc(F)cc(F)c1O [Example 578] | 7.2 | 98.0 | 100.0 | – | 276 to 280 | – | – | – | 90.4 | 2.8 | 93.8 | 47.4 | 26.7 | 26.7 | 90.7 |
| O=C(N/N=C/c1cccc(C(F)(F)F)c1O)c1ccccc1O [Example 351] | 7.7 | 96.1 | 100.0 | – | 230 to 234 | – | – | – | 87.9 | 0 | 97.7 | 27.1 | 44.4 | 44.4 | 97.1 |
| O=C(N/N=C/c1cc(Cl)cc(C(F)(F)F)c1O)c1ccccc1O [Example 384] | 28.6 | 95.8 | 100.0 | – | 258 to 260 | – | – | – | 71.1 | 0 | 96.6 | 13.6 | 57.5 | 57.5 | 97 |
| Cc1ccc(C(=O)N/N=C/c2ccc(Cl)c(Cl)c2O)c(O)c1 [Example 364] | 8.4 | 95.8 | 97.0 | – | 271 to 278 | – | – | – | 23.2 | 0 | 92.9 | 65.5 | 22.4 | 22.4 | 93.7 |
| O=C(N/N=C/c1c(C(F)(F)F)ccc(Cl)c1O)c1ccccc1O [Example 455] | 16.7 | 100.0 | 100.0 | – | 278 to 280 | – | – | – | 30.8 | 0 | 96.0 | 0 | 27.5 | 27.5 | 92.4 |
| O=C(N/N=C/c1cc(Cl)cc(Br)c1O)c1ccc(Cl)cc1 [Example 159] | – | – | – | 27.4 | – | 11.4 | 98.5 | 91.9 | – | – | – | – | – | – | – |
| O=C(N/N=C/c1cc(C(F)(F)F)ccc1O)c1ccccc1O [Example 443] | 14.6 | 100.0 | 83.0 | – | 277 to 281 | – | – | – | 91.2 | 2.4 | 35.3 | 10.2 | 5.8 | 5.8 | 92 |
| C/C(=N\NC(=O)c1ccccc1)c1ccccc1O [Example 230] | – | – | – | – | 185 to 187 | 9 | 98.3 | 65.0 | 93.6 | 5.8 | 94.4 | 11.9 | 43.6 | 43.6 | 96.7 |
| O=C(N/N=C/c1cc(Cl)cc(Cl)c1O)c1ccc(Cl)cc1 [Example 68] | – | – | – | 7.1 | – | 15.8 | 97.0 | 75.9 | – | – | – | – | – | – | – |
| O=C(N/N=C/c1cc(C(F)(F)F)cc(Cl)c1O)c1ccccc1 [Example 275] | – | – | – | – | 216 to 222 | 0 | 98.4 | 79.7 | 91.2 | 0 | 92.2 | 0 | 16.2 | 16.2 | 93.5 |
| O=C(N/N=C/c1ccc(Cl)cc1O)c1ccc(Cl)cc1 [Example 392] | 15.8 | 97.9 | 46.0 | 22.8 | – | – | – | – | – | – | – | – | – | – | – |
| C/C(=N\NC(=O)Cc1ccccc1)c1cc(Cl)cc(Cl)c1O [Example 140] | – | – | – | – | 199 to 204 | 6.7 | 96.7 | 81.0 | 91.4 | 0 | 95.7 | 0 | 0 | 0 | 96.6 |
| O=C(N/N=C/c1cc(Cl)ccc1O)c1ccc(Cl)cc1 [Example 172] | – | – | – | 28.7 | – | 13.2 | 97.9 | 27.1 | – | – | – | – | – | – | – |
| O=C(N/N=C/c1ccc(Cl)cc1O)c1ccccc1 [Example 233] | – | – | – | 8.4 | – | 5.6 | 98.1 | 88.1 | – | – | – | – | – | – | – |
